Assay results reported in paper PMC11273260.

Assays:
[1] = system: MCF-7 breast carcinoma cell line; test: MTT cytotoxic activity against MCF-7 breast carcinoma cell line; conditions: Homo sapiens, MCF7, read-out: IC50 (μM) MCF-7
EGFR kinase = target: T1, EGFR kinase (Homo sapiens, UniProt P00533); test: EGFR-TK inhibition assay (BPS Bioscience EGFR Kinase Assay Kit); assay type: biochemical
T1 construct: purchased BPS Bioscience 40321
From the text: S4.2.1. Cytotoxic activity evaluation
adenocarcinoma (MCF-7) cell line.
Dimethyl sulphoxide (DMSO) in
S4.2.2. EGFR kinase Assay

MCF-7 cells [2] = test: Cell cycle analysis by flow cytometry (PI staining); assay type: cell-based
Protocol: It is well documented that most tyrosine kinase inhibitors exert strong antiproliferative and pro-apoptotic effect.[38] […] These findings are in agreement with the previously observed for EGFR-TK structural analogues.[39]
S4.2.3. Cell cycle analysis of compound 6h
Cell cycle analysis in MCF-7 cells was investigated using fluorescent […] (BioVision EZCellTM Cell Cycle Analysis Kit Catalog #K920) by flow cytometry assay. MCF-7 cells at a density of 2 × 10^5 per well were harvested and washed twice in PBS. After that, the cells were incubated at 37 °C and 5% CO2. The medium was incubated with the tested compound 6h at the IC50 (µM) for 48 h, washed twice in PBS, fixed with 70% ethanol, rinsed again with PBS. Afterward, medium was stained with DNA fluorochrome PI for 15 min at 37 °C. The samples were immediately analyzed using Facs Calibur flow cytometer (Becton and Dickinson, Heidelberg, […]
S4.2.4. Apoptosis assay for compound 6h
(1 picture or pasted object on this page, not shown here)

MCF-7 cells [3] = test: Annexin V FITC/PI apoptosis staining assay by flow cytometry; assay type: cell-based; conditions: 2.71 μM, 48 h
From the text: In addition, an increase in the primary apoptotic cells was also observed. It is noteworthy that, the percentage of primary apoptosis was rise from 0.39 to 9.55% as compared to DMSO control (Fig. 4). According to these findings, it could be concluded that this set of compounds could halt MCF-7 cells in G1 phase and provoke apoptotic cellular death.
Apoptosis in MCF-7 cells was investigated using fluorescent Annexin V-FITC/ PI detection kit (BioVision Annexin V-FITC Apoptosis Detection Kit, Catalog #: K101) by flow cytometry assay. MCF-7 cells at a density of 2 × 10^5 per well were treated with compound 6h at the IC50 (µM) for 48 h, then the cells were harvested and stained with Annexin V-FITC/ PI dye for 15 min in the dark at 37 °C. The samples were immediately analyzed using FACS Calibur flow cytometer (Becton and Dickinson, […]

p53 = test: Apoptotic marker determination by qRT-PCR: p53; assay type: cell-based; conditions: MCF-7 cells, 2.71 μM, 48 h, compared to DMSO controls
From the text: (§1) p53 is a transcription factor that both initiates and suppresses a number of target genes involved in cancer progression and apoptosis.[40] The p53 protein level increase during cellular stress and cytotoxic drugs by increased transcription or increased stability due to post-translational modifications such as phosphorylation.[41] The ability of p53 to modulate caspase activation and apoptosis induction is critical to its role as tumor suppressor.[42] Coordinately, p53 activation promotes the loss of mitochondrial potential ultimately leading to caspase activation and apoptosis.[43] […] An increase in the level of p53 was detected in the tested cell line compared with controls at 48 h. The increased expression of p53 level was coupled with increase in the level of caspase 9 in compound 6h-treated MCF-7 cell line at 48 h. The levels of p53 and caspase 9 were increased by 7.4- and 8.7-fold, respectively compared with controls (Fig. 5).
(§2) MCF-7 cells were treated with 2.71 μM of tested hybrid for 48 h before qRT-PCR measurement and compared to untreated controls. (A) p53 level; (B) caspase 9 level.

caspase 9 = test: Apoptotic marker determination by qRT-PCR: caspase 9; assay type: cell-based; conditions: MCF-7 cells, 2.71 μM, 48 h, compared to DMSO controls
From the text: as §1, §2

T1 sequence (P00533 25-1210): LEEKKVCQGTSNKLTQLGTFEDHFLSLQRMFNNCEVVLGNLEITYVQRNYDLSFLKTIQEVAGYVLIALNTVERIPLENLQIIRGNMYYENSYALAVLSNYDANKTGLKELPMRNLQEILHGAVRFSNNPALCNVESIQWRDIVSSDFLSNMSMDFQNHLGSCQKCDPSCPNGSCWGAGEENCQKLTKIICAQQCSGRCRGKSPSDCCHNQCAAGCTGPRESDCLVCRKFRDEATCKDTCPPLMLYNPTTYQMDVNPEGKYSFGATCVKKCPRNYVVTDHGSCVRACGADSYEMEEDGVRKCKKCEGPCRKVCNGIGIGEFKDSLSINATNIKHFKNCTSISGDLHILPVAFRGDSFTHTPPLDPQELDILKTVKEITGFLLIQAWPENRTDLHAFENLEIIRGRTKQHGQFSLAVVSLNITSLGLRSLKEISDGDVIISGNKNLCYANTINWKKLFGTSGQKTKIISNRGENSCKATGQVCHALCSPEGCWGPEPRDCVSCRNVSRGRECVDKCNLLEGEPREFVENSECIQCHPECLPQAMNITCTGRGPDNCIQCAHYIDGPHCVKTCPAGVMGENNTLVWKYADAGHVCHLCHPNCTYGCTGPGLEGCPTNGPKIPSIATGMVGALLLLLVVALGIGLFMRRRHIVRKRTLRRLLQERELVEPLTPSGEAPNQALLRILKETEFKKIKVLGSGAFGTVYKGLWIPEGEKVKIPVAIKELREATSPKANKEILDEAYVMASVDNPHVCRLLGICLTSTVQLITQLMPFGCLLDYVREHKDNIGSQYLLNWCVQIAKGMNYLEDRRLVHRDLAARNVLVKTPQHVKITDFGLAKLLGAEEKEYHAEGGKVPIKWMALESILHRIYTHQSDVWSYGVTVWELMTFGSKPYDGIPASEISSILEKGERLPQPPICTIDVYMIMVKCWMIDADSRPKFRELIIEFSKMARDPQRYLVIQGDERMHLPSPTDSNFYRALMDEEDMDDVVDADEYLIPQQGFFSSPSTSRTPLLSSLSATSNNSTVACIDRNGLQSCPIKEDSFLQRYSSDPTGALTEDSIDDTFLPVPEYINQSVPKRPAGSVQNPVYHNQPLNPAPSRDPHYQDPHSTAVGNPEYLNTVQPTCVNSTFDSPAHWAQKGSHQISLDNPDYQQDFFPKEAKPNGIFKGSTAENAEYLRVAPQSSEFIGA

With COc1ccc(C(=O)N/C(=C\c2ccco2)C(=O)NNC(=O)c2cc(-c3ccc(Br)cc3)nc3ccccc23)cc1 [Compound 5, (Z)-N-(3-(2-(2-(4-Bromophenyl)quinoline-4-carbonyl)hydrazinyl)-1-(furan-2-yl)-3-oxoprop-1-en-2-yl)-4-methoxybenzamide] the melting point was 257 to 259 °C and the IC50 [1] was 12.5 ± 0.4 µM.
For COc1ccc(C(=O)N/C(=C\c2ccc(C)cc2)C(=O)NNC(=O)c2cc(-c3ccc(Br)cc3)nc3ccccc23)cc1 [Compound 6a, (Z)-N-(3-(2-(2-(4-Bromophenyl)quinoline-4-carbonyl)hydrazinyl)-3-oxo-1-p-tolylprop-1-en-2-yl)-4-methoxybenzamide], the IC50 (EGFR kinase) was 0.31 µM, the melting point was 246 to 248 °C and the IC50 [1] was 3.39 ± 0.11 µM.
For COc1ccc(C(=O)N/C(=C\c2ccc(OC)c(OC)c2)C(=O)NNC(=O)c2cc(-c3ccc(Br)cc3)nc3ccccc23)cc1 [Compound 6b, (Z)-N-(3-(2-(2-(4-Bromophenyl)quinoline-4-carbonyl)hydrazinyl)-1-(3,4-dimethoxyphenyl)-3-oxoprop-1-en-2-yl)-4-methoxybenzamide], the melting point was 235 to 237 °C and the IC50 [1] was 5.94 ± 0.17 µM.
Work on COc1ccc(C(=O)N/C(=C\c2ccc(OC)c(OC)c2OC)C(=O)NNC(=O)c2cc(-c3ccc(Br)cc3)nc3ccccc23)cc1 [Compound 6c, (Z)-N-(3-(2-(2-(4-Bromophenyl)quinoline-4-carbonyl)hydrazinyl)-3-oxo-1-(2,3,4-trimethoxyphenyl)prop-1-en-2-yl)-4-methoxybenzamide] yielded a melting point of 192 to 194 °C and an IC50 [1] of 51.8 ± 1.54 µM.
COc1ccc(C(=O)N/C(=C\c2cc(OC)c(OC)c(OC)c2)C(=O)NNC(=O)c2cc(-c3ccc(Br)cc3)nc3ccccc23)cc1 [Compound 6d, (Z)-N-(3-(2-(2-(4-Bromophenyl)quinoline-4-carbonyl)hydrazinyl)-3-oxo-1-(3,4,5-trimethoxyphenyl)prop-1-en-2-yl)-4-methoxybenzamide] showed a melting point of 208 to 210 °C and an IC50 [1] of 17.1 ± 0.55 µM.
With COc1ccc(C(=O)N/C(=C\c2ccc(F)cc2)C(=O)NNC(=O)c2cc(-c3ccc(Br)cc3)nc3ccccc23)cc1 [Compound 6e, (Z)-N-(3-(2-(2-(4-Bromophenyl)quinoline-4-carbonyl)hydrazinyl)-1-(4-fluorophenyl)-3-oxoprop-1-en-2-yl)-4-methoxybenzamide] the melting point was 258 to 260 °C and the IC50 [1] was 21.2 ± 0.68 µM.
Work on COc1ccc(C(=O)N/C(=C\c2ccc(Cl)cc2)C(=O)NNC(=O)c2cc(-c3ccc(Br)cc3)nc3ccccc23)cc1 [Compound 6f, (Z)-N-(3-(2-(2-(4-Bromophenyl)quinoline-4-carbonyl)hydrazinyl)-1-(4-chlorophenyl)-3-oxoprop-1-en-2-yl)-4-methoxybenzamide] yielded a melting point of 276 to 278 °C and an IC50 [1] of 26 ± 0.84 µM.
For COc1ccc(C(=O)N/C(=C\c2ccc(Br)cc2)C(=O)NNC(=O)c2cc(-c3ccc(Br)cc3)nc3ccccc23)cc1 [Compound 6g, (Z)-N-(1-(4-Bromophenyl)-3-(2-(2-(4-bromophenyl)quinoline-4-carbonyl)hydrazinyl)-3-oxoprop-1-en-2-yl)-4-methoxybenzamide], the melting point was 261 to 263 °C and the IC50 [1] was 39.1 ± 1.26 µM.
With COc1ccc(C(=O)N/C(=C\c2ccc([N+](=O)[O-])cc2)C(=O)NNC(=O)c2cc(-c3ccc(Br)cc3)nc3ccccc23)cc1 [Compound 6h, (Z)-N-(3-(2-(2-(4-Bromophenyl)quinoline-4-carbonyl)hydrazinyl)-1-(4-nitrophenyl)-3-oxoprop-1-en-2-yl)-4-methoxybenzamide] the IC50 (EGFR kinase) was 0.22 µM, the “G1 phase arrest, fold more than DMSO controls” value (MCF-7 cells [2]; 2.71 μM) was 1.3 fold and the “percentage of cells in G2/M phase” value (MCF-7 cells [2]; 2.71 μM (IC50) of compound, 48 h, DMSO control 15.56%) was 9.37%. For the same compound, the “percentage of cells in S phase” value (MCF-7 cells [2]; 2.71 μM (IC50) of compound, 48 h, DMSO control 37.51%) was 28.48%, the “proportion of cells in G1 phase” value (MCF-7 cells [2]; 2.71 μM (IC50) of compound, 48 h, DMSO control 46.93%) was 62.15% and the “percentage of secondary cellular apoptosis” value (MCF-7 cells [3]; DMSO control 0.11%) was 17.78%. The “percentage of primary apoptosis” value (MCF-7 cells [3]; DMSO control 0.39%) was 9.55%, the “increase of p53 level vs controls” value (p53) was 7.4 fold and the “increase of caspase 9 level vs controls” value (caspase 9) was 8.7 fold. The IC50 [1] was 2.71 ± 0.09 µM.
With COc1ccc(C(=O)N/C(=C\c2cc(Br)c(OC(C)=O)c(Br)c2)C(=O)NNC(=O)c2cc(-c3ccc(Br)cc3)nc3ccccc23)cc1 [Compound 6i, (Z)-2,6-Dibromo-4-(3-(2-(2-(4-bromophenyl)quinoline-4-carbonyl)hydrazinyl)-2-(4-methoxybenzamido)-3-oxoprop-1-enyl)phenyl acetate] the melting point was 217 to 219 °C and the IC50 [1] was 8.77 ± 0.28 µM.
In the case of COc1cccc2c1C(=O)c1c(O)c3c(c(O)c1C2=O)C[C@@](O)(C(=O)CO)C[C@@H]3O[C@H]1C[C@H](N)[C@H](O)[C@H](C)O1 [Dox, Doxorubicin, reference compound], the IC50 [1] is reported as 6.18 ± 0.2 µM.
